Data as given in US8470787B2, “Hydrates of erythromycin salts, preparation and use thereof” (priority 2008, dated 2013).
Like-named read-outs stand apart in the source and are kept apart here.

How the values were obtained:
[1] = hygroscopic test according to China Pharmacopeia CP2005; format: physicochemical; conditions: 25° C.
[2] = system: Escherichia coli; assay: antibacterial activity, tube double dilution method, clinically obtained bacteria; format: cell-based; conditions: 21 strains
[3] = system: Staphylococcus epidermidis; assay: as above; format: cell-based; conditions: 21 strains
[4] = system: Staphylococcus aureus; assay: as above; format: cell-based; conditions: 26 strains
[5] = accelerated stability test (sealed vial, 30° C., HPLC content and related substances); format: physicochemical
Experimental: The hydrates of erythromycin salts according to the present invention can be stably stored. A sample of the above hydrates was sealed in a vial, and an accelerated stability test was conducted at 30° C. and changes of the content and related substances were measured by a HPLC method (C18 reverse phase column, 0.01M KH2PO4-acetonitrile (60:40) as the mobile phase, detective wavelength: 215 nm, column temperature: 35° C., flow rate: 1.0 ml/min) (upon different hydrates of erythromycin salts, such as crystalline hydrates of erythromycin thiocyanate, the pH of the mobile phase can be adjusted and KH2PO4 can be changed into NaH2PO4, the detective wavelength can be changed into 210 nm, and the column temperature can be set at 35-55° C., such as 50° C. for analysis and measurement). […] As compared to the anhydrous of erythromycin salt, the hydrates of erythromycin salts according to the present invention have a lower hygroscopicity, i.e., has a better stability of hygroscopicity, which facilitates the package and storage thereof, or is a more advantageously stable form for storage relative to the anhydrous.

[6] = system: Streptococcus viridan; assay: antibacterial activity, tube double dilution method, clinically obtained bacteria; format: cell-based; conditions: 23 strains
[7] = system: Neisseria gonorrhoeae; assay: as above; format: cell-based; conditions: for MIC50 / MIC90: 16 strains; for MIC: range over 16 strains
Experimental: (§1) The antibacterial activities of the hydrates of erythromycin salts are determined by culturing clinically obtained bacteria and measuring in accordance with pharmacological test methods (the tube double dilution method), and the results are shown in the following tables 9, 10, 11 and 12.

[8] = system: Bacillus influenzae; assay: as above; format: cell-based; conditions: for MIC50 / MIC90: 17 strains; for MIC: range over 17 strains
Experimental: as §1

[9] = system: Anaerobe; assay: as above; format: cell-based; conditions: for MIC50 / MIC90: 16 strains; for MIC: range over 16 strains
Experimental: as §1

[10] = system: Streptococcus hemolyticus; assay: as above; format: cell-based; conditions: for MIC50 / MIC90: 16 strains; for MIC: range over 16 strains
Experimental: as §1

[11] = system: Propionibacterium; assay: as above; format: cell-based; conditions: for MIC50 / MIC90: 18 strains; for MIC: range over 18 strains
Experimental: as §1

[12] = system: Pneumococcus; assay: as above; format: cell-based; conditions: for MIC50 / MIC90: 18 strains; for MIC: range over 18 strains
Experimental: as §1

[13] = system: Bacillus fragilis; assay: as above; format: cell-based; conditions: for MIC50 / MIC90: 15 strains; for MIC: range over 15 strains
Experimental: as §1

[14] = spray-dried product

## CC[C@H]1OC(=O)[C@H](C)[C@@H](O[C@H]2C[C@@](C)(OC)[C@@H](O)[C@H](C)O2)[C@H](C)[C@@H](O[C@@H]2O[C@H](C)C[C@H](N(C)C)[C@H]2O)[C@](C)(O)C[C@@H](C)C(=O)[C@H](C)[C@@H](O)[C@]1(C)O.O=C(O)[C@H](O)[C@@H](O)[C@H](O[C@@H]1O[C@H](CO)[C@H](O)[C@H](O)[C@H]1O)[C@H](O)CO [Erythromycin lactobionate anhydrous, reference compound]
[1]; relative humidity 75%
  hygroscopicity (in words), compared with the anhydrous: more hygroscopic

## CC[C@H]1OC(=O)[C@H](C)[C@@H](O[C@H]2C[C@@](C)(OC)[C@@H](O)[C@H](C)O2)[C@H](C)[C@@H](O[C@@H]2O[C@H](C)C[C@H](N(C)C)[C@H]2O)[C@](C)(O)C[C@@H](C)C(=O)[C@H](C)[C@@H](O)[C@]1(C)O.O.O.O.O.O.O.O=C(O)[C@H](O)[C@@H](O)[C@H](O[C@@H]1O[C@H](CO)[C@H](O)[C@H](O)[C@H]1O)[C@H](O)CO [erythromycin lactobionate hexahydrate]
[2]
  MIC50: 4 µg/mL
[3]
  MIC50: 16 µg/mL
[4]
  MIC50: 0.12 µg/mL
[5]; month 0
  Assay (%): 99.7%
  Form: off-white powder
[5]; month 1
  Assay (%): 99.6%
  Form: off-white powder
[5]; month 2
  Assay (%): 100.2%
  Form: off-white powder
[5]; month 3
  Assay (%): 99.8%
  Form: off-white powder
[5]; month 6
  Assay (%): 99.6%
  Form: off-white powder
[6]
  MIC50: 0.06 µg/mL
  MIC90: 0.5 µg/mL
[7]
  MIC50: 0.25 µg/mL
  MIC90: 1 µg/mL
  MIC: 0.06 to 2 µg/mL
[8]
  MIC50: 4 µg/mL
  MIC90: 8 µg/mL
  MIC: 0.12 to 8 µg/mL
[9]
  MIC50: 2 µg/mL
  MIC90: 16 µg/mL
  MIC: 0.06 to 64 µg/mL
[10]
  MIC50: 0.06 µg/mL
  MIC90: 32 µg/mL
  MIC: 0.03 to 32 µg/mL
[11]
  MIC50: 0.06 µg/mL
  MIC90: 0.12 µg/mL
  MIC: 0.03 to 16 µg/mL
[12]
  MIC50: 0.06 µg/mL
  MIC90: 1 µg/mL
  MIC: 0.03 to 0.5 µg/mL
[13]
  MIC50: 4 µg/mL
  MIC90: 16 µg/mL
  MIC: 0.5 to 64 µg/mL

## CC[C@H]1OC(=O)[C@H](C)[C@@H](O[C@H]2C[C@@](C)(OC)[C@@H](O)[C@H](C)O2)[C@H](C)[C@@H](O[C@@H]2O[C@H](C)C[C@H](N(C)C)[C@H]2O)[C@](C)(O)C[C@@H](C)C(=O)[C@H](C)[C@@H](O)[C@]1(C)O.O.O.O.O.O.O=C(O)[C@H](O)[C@@H](O)[C@H](O[C@@H]1O[C@H](CO)[C@H](O)[C@H](O)[C@H]1O)[C@H](O)CO [erythromycin lactobionate pentahydrate]
[2]
  MIC50: 4 µg/mL
[3]
  MIC50: 16 µg/mL
[4]
  MIC50: 0.12 µg/mL
[5]; month 0
  Assay (%): 99.9%
  Form: off-white powder
[5]; month 1
  Assay (%): 100.2%
  Form: off-white powder
[5]; month 2
  Assay (%): 99.8%
  Form: off-white powder
[5]; month 3
  Assay (%): 100.1%
  Form: off-white powder
[5]; month 6
  Assay (%): 99.9%
  Form: off-white powder
[14]
  potency: 626 u/mg
[6]
  MIC50: 0.06 µg/mL
  MIC90: 0.5 µg/mL
[7]
  MIC50: 0.25 µg/mL
  MIC90: 1 µg/mL
  MIC: 0.06 to 2 µg/mL
[8]
  MIC50: 4 µg/mL
  MIC90: 8 µg/mL
  MIC: 0.12 to 8 µg/mL
[10]
  MIC50: 0.06 µg/mL
  MIC90: 32 µg/mL
  MIC: 0.03 to 32 µg/mL
[11]
  MIC50: 0.06 µg/mL
  MIC90: 0.12 µg/mL
  MIC: 0.03 to 16 µg/mL
[12]
  MIC50: 0.06 µg/mL
  MIC90: 1 µg/mL
  MIC: 0.03 to 0.5 µg/mL
[13]
  MIC50: 4 µg/mL
  MIC90: 16 µg/mL
  MIC: 0.5 to 64 µg/mL

## CC[C@H]1OC(=O)[C@H](C)[C@@H](O[C@H]2C[C@@](C)(OC)[C@@H](O)[C@H](C)O2)[C@H](C)[C@@H](O[C@@H]2O[C@H](C)C[C@H](N(C)C)[C@H]2O)[C@](C)(O)C[C@@H](C)C(=O)[C@H](C)[C@@H](O)[C@]1(C)O [erythromycin lactobionate trihydrate]
[2]; Escherichia coli, read-out: MIC50
  MIC50: 4 µg/mL
[3]; Staphylococcus epidermidis, read-out: MIC50
  MIC50: 16 µg/mL
[4]; Staphylococcus aureus, read-out: MIC50
  MIC50: 0.12 µg/mL
[5]; month 0
  Assay (%): 99.9%
  Form: off-white powder
[5]; month 1
  Assay (%): 100.2%
  Form: off-white powder
[5]; month 2
  Assay (%): 99.8%
  Form: off-white powder
[5]; month 3
  Assay (%): 100.1%
  Form: off-white powder
[5]; month 6
  Assay (%): 99.9%
  Form: off-white powder
[6]; Streptococcus, read-out: MIC50
  MIC50: 0.06 µg/mL
[6]; Streptococcus, read-out: MIC90
  MIC90: 0.5 µg/mL
[7]; Neisseria gonorrhoeae, read-out: MIC50
  MIC50: 0.25 µg/mL
[7]; Neisseria gonorrhoeae, read-out: MIC90
  MIC90: 1 µg/mL
[7]; Neisseria gonorrhoeae, read-out: MIC
  MIC: 0.06 to 2 µg/mL
[8]; Bacillus, read-out: MIC50
  MIC50: 4 µg/mL
[8]; Bacillus, read-out: MIC90
  MIC90: 8 µg/mL
[8]; Bacillus, read-out: MIC
  MIC: 0.12 to 8 µg/mL
[10]; Streptococcus pyogenes, read-out: MIC50
  MIC50: 0.06 µg/mL
[10]; Streptococcus pyogenes, read-out: MIC90
  MIC90: 32 µg/mL
[10]
  MIC: 0.03 to 32 µg/mL
[11]; Propionibacterium, read-out: MIC50
  MIC50: 0.06 µg/mL
[11]; Propionibacterium, read-out: MIC90
  MIC90: 0.12 µg/mL
[11]; Propionibacterium, read-out: MIC
  MIC: 0.03 to 16 µg/mL
[12]; read-out: MIC50
  MIC50: 0.06 µg/mL
[12]; read-out: MIC90
  MIC90: 1 µg/mL
[12]; read-out: MIC
  MIC: 0.03 to 0.5 µg/mL
[13]; Bacillus, read-out: MIC50
  MIC50: 4 µg/mL
[13]; Bacillus, read-out: MIC90
  MIC90: 16 µg/mL
[13]; Bacillus, read-out: MIC
  MIC: 0.5 to 64 µg/mL

## CC[C@H]1OC(=O)[C@H](C)[C@@H](O[C@H]2C[C@@](C)(OC)[C@@H](O)[C@H](C)O2)[C@H](C)[C@@H](O[C@@H]2O[C@H](C)C[C@H](N(C)C)[C@H]2O)[C@](C)(O)C[C@@H](C)C(=O)[C@H](C)[C@@H](O)[C@]1(C)O.N#CS.O.O [erythromycin thiocyanate dihydrate]
[2]
  MIC50: 4 µg/mL
[3]
  MIC50: 16 µg/mL
[4]
  MIC50: 0.12 µg/mL
[5]; month 0
  Assay (%): 99.9%
  Form: off-white powder
[5]; month 1
  Assay (%): 99.9%
  Form: off-white powder
[5]; month 2
  Assay (%): 100.4%
  Form: off-white powder
[5]; month 3
  Assay (%): 100.2%
  Form: off-white powder
[5]; month 6
  Assay (%): 99.8%
  Form: off-white powder
[6]
  MIC50: 0.06 µg/mL
  MIC90: 0.5 µg/mL
[7]
  MIC50: 0.25 µg/mL
  MIC90: 1 µg/mL
  MIC: 0.06 to 2 µg/mL
[8]
  MIC50: 4 µg/mL
  MIC90: 8 µg/mL
  MIC: 0.12 to 8 µg/mL
[9]
  MIC50: 2 µg/mL
  MIC90: 16 µg/mL
  MIC: 0.06 to 64 µg/mL
[10]
  MIC50: 0.06 µg/mL
  MIC90: 32 µg/mL
  MIC: 0.03 to 32 µg/mL
[11]
  MIC50: 0.06 µg/mL
  MIC90: 0.12 µg/mL
  MIC: 0.03 to 16 µg/mL
[12]
  MIC50: 0.06 µg/mL
  MIC90: 1 µg/mL
  MIC: 0.03 to 0.5 µg/mL
[13]
  MIC50: 4 µg/mL
  MIC90: 16 µg/mL
  MIC: 0.5 to 64 µg/mL

## CC[C@H]1OC(=O)[C@H](C)[C@@H](O[C@H]2C[C@@](C)(OC)[C@@H](O)[C@H](C)O2)[C@H](C)[C@@H](O[C@@H]2O[C@H](C)C[C@H](N(C)C)[C@H]2O)[C@](C)(O)C[C@@H](C)C(=O)[C@H](C)[C@@H](O)[C@]1(C)O.N#CS.O.O.O [erythromycin thiocyanate trihydrate]
[5]; month 0
  Assay (%): 99.8%
  Form: off-white powder
[5]; month 1
  Assay (%): 99.9%
  Form: off-white powder
[5]; month 2
  Assay (%): 100.6%
  Form: off-white powder
[5]; month 3
  Assay (%): 100.3%
  Form: off-white powder
[5]; month 6
  Assay (%): 100.1%
  Form: off-white powder

## erythromycin thiocyanate hemitri(1.5)hydrate
[5]; month 0
  Assay (%): 99.9%
  Form: off-white powder
[5]; month 1
  Assay (%): 100.3%
  Form: off-white powder
[5]; month 2
  Assay (%): 100.5%
  Form: off-white powder
[5]; month 3
  Assay (%): 100.1%
  Form: off-white powder
[5]; month 6
  Assay (%): 100.2%
  Form: off-white powder
[1]; RH 75%, 48 h
  Hygroscopic weight gain %, relative to 0 h: 3.12%
